Test results reported in publication PMC9693918, “May Sulfonamide Inhibitors of Carbonic Anhydrases from Mammaliicoccus sciuri Prevent Antimicrobial Resistance Due to Gene Transfer to Other Harmful Staphylococci?” (International Journal of Molecular Sciences, 2022).

These molecules were tested against T1, MscCAγ (M. sciuri γ-CA) (Mammaliicoccus sciuri, UniProt A0AB37HNM1) (assay: stopped-flow CO2 hydration assay, phenol red). Conditions: not given.
T1 construct: gene OWO77_11715
T1 sequence (A0AB37HNM1 1-169): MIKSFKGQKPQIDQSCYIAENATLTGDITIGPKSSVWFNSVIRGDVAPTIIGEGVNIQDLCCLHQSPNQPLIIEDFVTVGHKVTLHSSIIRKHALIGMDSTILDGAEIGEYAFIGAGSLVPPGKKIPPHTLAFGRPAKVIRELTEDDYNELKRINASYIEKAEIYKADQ
Format: biochemical
Source text: stopped-flow CO2 hydration assay, phenol red on MscCAγ (M. sciuri γ-CA)

**Q.** NCCc1ccc(S(N)(=O)=O)cc1 [compound 6, 6] was tested. Which Ki did it give?
**A.** 176 nM

Same assay, conditions: read-out: KI (nM) ^a / MscCAγ

**Q.** For CCN[C@H]1CN(CCCOC)S(=O)(=O)c2sc(S(N)(=O)=O)cc21 [BRZ], which Ki is on record?
**A.** 100 nM

**Q.** Which Ki does the source give for NS(=O)(=O)c1nnc(NS(=O)(=O)c2ccccc2)s1 [BZA] here?
**A.** 444 nM

**Q.** Which Ki does the source give for Cc1ccc(-c2cc(C(F)(F)F)nn2-c2ccc(S(N)(=O)=O)cc2)cc1 [CLX] here?
**A.** 3020 nM

**Q.** For NS(=O)(=O)c1cc(Cl)c(Cl)c(S(N)(=O)=O)c1 [DCP], which Ki is on record?
**A.** 8580 nM

**Q.** For NS(=O)(=O)c1cc2c(cc1Cl)NCNS2(=O)=O [HCT], which Ki is on record?
**A.** 18300 nM

**Q.** With NS(=O)(=O)c1ccc(S(=O)(=O)Nc2cccc3c(Cl)c[nH]c23)cc1 [IND] as the molecule, how does the Ki read?
**A.** 369 nM

**Q.** Which Ki does the source give for CC(=O)N=c1sc(S(N)(=O)=O)nn1C [MZA] here?
**A.** 94.5 nM

**Q.** O=C1NS(=O)(=O)c2ccccc21 [SAC] was tested. Which Ki did it give?
**A.** 29700 nM

**Q.** Which Ki does the source give for CCN1CCCC1CNC(=O)c1cc(S(N)(=O)=O)ccc1OC (stereo not shown) [SLP] here?
**A.** 2200 nM

**Q.** For NS(=O)(=O)c1ccc(N2CCCCS2(=O)=O)cc1 [SLT], which Ki is on record?
**A.** 405 nM

**Q.** With CC1(C)O[C@@H]2[C@@H](CO[C@@]3(COS(N)(=O)=O)OC(C)(C)O[C@@H]23)O1 [TPM] as the molecule, how does the Ki read?
**A.** 578 nM

**Q.** How did the Ki turn out when Cc1onc(-c2ccccc2)c1-c1ccc(S(N)(=O)=O)cc1 [VLX] was run?
**A.** 1540 nM

**Q.** NS(=O)(=O)Cc1noc2ccccc12 [ZNS] was tested. Which Ki did it give?
**A.** 923 nM

**Q.** NS(=O)(=O)c1ccc(CCNS(=O)(=O)c2ccc([N+](=O)[O-])cc2CO)cc1 [compound 21, 21] was tested. Which Ki did it give?
**A.** 83.4 nM

**Q.** With Nc1ccc(S(=O)(=O)Nc2ccc(S(N)(=O)=O)cc2)cc1 [compound 22, 22] as the molecule, how does the Ki read?
**A.** 72.5 nM
